{"source": "paper PMC5908474", "about": "(European journal of medicinal chemistry, 2018)", "key": {"[1]": {"target": "recombinant human S1PR1 (Homo sapiens, UniProt P21453)", "sequence (P21453 whole entry)": "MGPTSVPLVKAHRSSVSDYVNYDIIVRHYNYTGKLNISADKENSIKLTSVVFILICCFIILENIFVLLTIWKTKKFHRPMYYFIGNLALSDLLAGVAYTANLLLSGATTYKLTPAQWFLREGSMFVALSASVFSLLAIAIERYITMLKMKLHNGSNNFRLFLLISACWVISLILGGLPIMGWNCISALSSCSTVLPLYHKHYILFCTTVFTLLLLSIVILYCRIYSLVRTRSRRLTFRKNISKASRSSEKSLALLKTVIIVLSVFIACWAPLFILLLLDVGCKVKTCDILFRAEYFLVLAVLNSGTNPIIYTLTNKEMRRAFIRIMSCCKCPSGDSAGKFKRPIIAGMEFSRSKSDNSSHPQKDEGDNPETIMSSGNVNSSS", "assay": "[32P]S1P competitive binding assay, S1PR1", "conditions": "for IC50: mean ± SD, CHO cell membrane, recombinant human S1PR1, 0.1 nM [32P]S1P; for fold increased S1PR1 IC50 value compared to compound 4: vs compound 4 (2.6 nM)"}, "[2]": {"target": "recombinant human S1PR2 (Homo sapiens, UniProt O95136)", "sequence (O95136 whole entry)": "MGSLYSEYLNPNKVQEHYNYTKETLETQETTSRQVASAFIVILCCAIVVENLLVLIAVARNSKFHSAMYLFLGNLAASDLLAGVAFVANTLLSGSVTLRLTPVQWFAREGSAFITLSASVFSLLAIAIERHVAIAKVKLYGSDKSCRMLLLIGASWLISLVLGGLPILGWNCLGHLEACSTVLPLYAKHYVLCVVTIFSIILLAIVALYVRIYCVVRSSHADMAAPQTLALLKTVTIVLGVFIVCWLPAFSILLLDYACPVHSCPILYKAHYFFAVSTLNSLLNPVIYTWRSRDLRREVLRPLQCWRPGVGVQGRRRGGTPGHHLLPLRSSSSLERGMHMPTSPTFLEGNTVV", "assay": "[32P]S1P competitive binding assay, S1PR2"}, "[3]": {"target": "recombinant human S1PR3 (Homo sapiens, UniProt Q99500)", "sequence (Q99500 whole entry)": "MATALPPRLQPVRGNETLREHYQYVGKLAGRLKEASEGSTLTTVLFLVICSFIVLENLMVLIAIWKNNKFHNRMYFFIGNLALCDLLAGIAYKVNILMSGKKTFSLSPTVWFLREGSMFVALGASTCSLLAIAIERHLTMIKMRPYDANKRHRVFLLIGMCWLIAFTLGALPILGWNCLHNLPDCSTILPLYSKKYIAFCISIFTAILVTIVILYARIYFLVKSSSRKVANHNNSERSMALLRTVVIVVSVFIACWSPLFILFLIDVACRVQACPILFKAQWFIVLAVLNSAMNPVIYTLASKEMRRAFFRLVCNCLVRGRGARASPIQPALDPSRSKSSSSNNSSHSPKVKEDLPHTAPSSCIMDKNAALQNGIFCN", "assay": "[32P]S1P competitive binding assay, S1PR3"}, "[4]": {"target": "recombinant human S1PR5 (Homo sapiens, UniProt Q9H228)", "sequence (Q9H228 whole entry)": "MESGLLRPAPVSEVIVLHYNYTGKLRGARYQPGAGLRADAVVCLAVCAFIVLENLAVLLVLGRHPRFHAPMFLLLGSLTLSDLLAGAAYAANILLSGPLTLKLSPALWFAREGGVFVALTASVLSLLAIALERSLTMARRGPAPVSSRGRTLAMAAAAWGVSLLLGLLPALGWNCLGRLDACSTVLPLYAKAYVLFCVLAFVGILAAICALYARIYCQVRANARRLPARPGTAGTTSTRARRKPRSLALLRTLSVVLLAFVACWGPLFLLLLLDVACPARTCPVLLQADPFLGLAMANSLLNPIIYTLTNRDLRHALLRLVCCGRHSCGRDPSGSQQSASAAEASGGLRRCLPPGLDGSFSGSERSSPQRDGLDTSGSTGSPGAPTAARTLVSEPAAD", "assay": "[32P]S1P competitive binding assay, S1PR5"}, "[5]": {"target": "T1, recombinant human S1PR4 (Homo sapiens, UniProt O95977)", "T1 sequence (O95977 1-384)": "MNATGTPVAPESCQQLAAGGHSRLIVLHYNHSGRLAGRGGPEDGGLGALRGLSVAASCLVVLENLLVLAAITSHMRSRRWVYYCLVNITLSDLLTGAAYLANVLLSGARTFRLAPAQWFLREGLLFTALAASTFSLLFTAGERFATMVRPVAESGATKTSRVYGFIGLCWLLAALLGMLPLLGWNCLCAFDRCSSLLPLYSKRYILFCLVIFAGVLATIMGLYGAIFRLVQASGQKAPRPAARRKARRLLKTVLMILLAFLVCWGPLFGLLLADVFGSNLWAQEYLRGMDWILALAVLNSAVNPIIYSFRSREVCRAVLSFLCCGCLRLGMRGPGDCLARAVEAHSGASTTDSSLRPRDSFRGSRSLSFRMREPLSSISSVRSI", "assay": "[32P]S1P competitive binding assay, S1PR4"}}, "note": "Where two headings read alike, the source gives them in different places.", "data": [{"smiles": "NCCOCc1ccc(-c2noc(-c3ccc(OCCF)c(C(F)(F)F)c3)n2)cc1", "note": "[21b, 2-((4-(5-(4-(2-Fluoroethoxy)-3-(trifluoromethyl)phenyl)-1,2,4-oxadiazol-3-yl)benzyl)oxy)ethan-1-amine]", "values": [{"measurement": "IC50", "setting": "[1]; S1PR1 IC50 (nM)", "value": "44.2 ± 6.8", "unit": "nM"}]}, {"smiles": "O=C(O)c1ccc(-c2noc(-c3ccc(OCCF)c(C(F)(F)F)c3)n2)cc1", "note": "[10a, 4-(5-(4-(2-Fluoroethoxy)-3-(trifluoromethyl)phenyl)-1,2,4-oxadiazol-3-yl)benzoic acid]", "values": [{"measurement": "IC50", "setting": "[1]; S1PR1 IC50 (nM)", "value": "> 1000", "unit": "nM"}]}, {"smiles": "O=C(NO)c1ccc(-c2noc(-c3ccc(OCCF)c(C(F)(F)F)c3)n2)cc1", "note": "[10b, 4-(5-(4-(2-Fluoroethoxy)-3-(trifluoromethyl)phenyl)-1,2,4-oxadiazol-3-yl)-N-hydroxybenzamide]", "values": [{"measurement": "fold increased S1PR1 IC50 value compared to compound 9b", "setting": "[1]; vs benzamide 9b", "value": 4, "unit": "fold"}]}, {"smiles": "OCc1cn(Cc2ccc(-c3noc(-c4ccc(OCCF)c(C(F)(F)F)c4)n3)cc2)nn1", "note": "[12b, (1-(4-(5-(4-(2-Fluoroethoxy)-3-(trifluoromethyl)phenyl)-1,2,4-oxadiazol-3-yl)benzyl)-1H-1,2,3-triazol-4-yl)met-hanol]", "values": [{"measurement": "selectivity toward S1PR1 over S1PR2-5", "setting": "[1]; S1PR1 over S1PR2-5", "value": "> 100", "unit": "fold"}, {"measurement": "fold decreased S1PR1 IC50 value compared to acid 12a", "setting": "[1]; vs 12a (341 nM)", "value": 35, "unit": "fold"}, {"measurement": "IC50", "setting": "[2]; read-out: IC50 (nM) S1PR2, mean ± SD, membranes with recombinant human S1PR2, [32P]S1P", "value": "> 1000", "unit": "nM"}, {"measurement": "IC50", "setting": "[3]; read-out: IC50 (nM) S1PR3, mean ± SD, membranes with recombinant human S1PR3, [32P]S1P", "value": "> 1000", "unit": "nM"}, {"measurement": "IC50", "setting": "[4]; read-out: IC50 (nM) S1PR5, mean ± SD, membranes with recombinant human S1PR5, [32P]S1P", "value": "> 1000", "unit": "nM"}, {"measurement": "IC50", "setting": "[5]; read-out: IC50 (nM) S1PR4, mean ± SD, membranes with recombinant human S1PR4, [32P]S1P", "value": "> 1000", "unit": "nM"}]}, {"smiles": "NNC(=O)c1ccc(-c2noc(-c3ccc(OCCF)c(C(F)(F)F)c3)n2)cc1", "note": "[10c, 4-(5-(4-(2-Fluoroethoxy)-3-(trifluoromethyl)phenyl)-1,2,4-oxadiazol-3-yl)benzohydrazide]", "values": [{"measurement": "fold decreased S1PR1 IC50 value compared to compound 9b", "setting": "[1]; vs benzamide 9b", "value": 5, "unit": "fold"}, {"measurement": "IC50", "setting": "[2]", "value": "> 1000", "unit": "nM"}, {"measurement": "IC50", "setting": "[3]", "value": "> 1000", "unit": "nM"}]}, {"smiles": "O=C(O)CCNCc1ccc(-c2noc(-c3ccc(OCCF)c(C(F)(F)F)c3)n2)cc1", "note": "[16b, 3-((4-(5-(4-(2-Fluoroethoxy)-3-(trifluoromethyl)phenyl)-1,2,4-oxadiazol-3-yl)benzyl)amino)propanoic acid]", "values": [{"measurement": "IC50", "setting": "[1]; S1PR1 IC50 (nM)", "value": "6.3 ± 1.3", "unit": "nM"}, {"measurement": "IC50", "setting": "[2]", "value": "> 1000", "unit": "nM"}, {"measurement": "IC50", "setting": "[3]", "value": "> 1000", "unit": "nM"}, {"measurement": "IC50", "setting": "[4]", "value": "> 1000", "unit": "nM"}, {"measurement": "IC50", "setting": "[5]", "value": "> 1000", "unit": "nM"}]}, {"smiles": "O=C(O)CNCc1ccc(-c2noc(-c3ccc(OCCF)c(C(F)(F)F)c3)n2)cc1", "note": "[16a, (4-(5-(4-(2-Fluoroethoxy)-3-(trifluoromethyl)phenyl)-1,2,4-oxadiazol-3-yl)benzyl)glycine]", "values": [{"measurement": "IC50", "setting": "[1]; S1PR1 IC50 (nM)", "value": "99.8 ± 12.2", "unit": "nM"}, {"measurement": "fold increased S1PR1 IC50 value compared to compound 4", "setting": "[1]", "value": 38, "unit": "fold"}]}, {"smiles": "NS(=O)(=O)c1ccc(-c2noc(-c3ccc(OCCF)c(C(F)(F)F)c3)n2)cc1", "note": "[9a, 4-(5-(4-(2-Fluoroethoxy)-3-(trifluoromethyl)phenyl)-1,2,4-oxadiazol-3-yl)benzenesulfonamide]", "values": [{"measurement": "IC50", "setting": "[2]", "value": "> 1000", "unit": "nM"}, {"measurement": "IC50", "setting": "[3]", "value": "> 1000", "unit": "nM"}]}, {"smiles": "O=C(O)c1cn(Cc2ccc(-c3noc(-c4ccc(OCCF)c(C(F)(F)F)c4)n3)cc2)nn1", "note": "[12a, 1-(4-(5-(4-(2-Fluoroethoxy)-3-(trifluoromethyl)phenyl)-1,2,4-oxadiazol-3-yl)benzyl)-1H-1,2,3-triazole-4-carbox-ylic acid]", "values": [{"measurement": "IC50", "setting": "[1]; read-out: S1PR1 IC50", "value": "341 ± 126", "unit": "nM"}, {"measurement": "fold increased S1PR1 IC50 value compared to compound 4", "setting": "[1]", "value": 130, "unit": "fold"}]}]}
